This note sets out measurements from patent publication US7968595B2, “Substituted 4-aryl-chromene as activator of caspases and inducer of apoptosis and as antivascular agent and the use thereof” (Cytovia, Inc., priority 2006, dated 2011).

One assay deals with ZR-75-1. The assay can be described thus: Caspase activation assay in ZR-75-1 cells. The class given is cell-based. To be noted: Homo sapiens, ZR751 cells, 24 h incubation, read-out: Caspase activation potency EC50 ZR751. The protocol: (§1) Human breast cancer cell lines T-47D and ZR-75-1, human colon cancer cell line DLD-1 and human non-small cell lung cancer cell line H1299 were grown according to media component mixtures designated by American Type Culture Collection+10% FCS (Invitrogen Corporation), in a 5% CO2−95% humidity incubator at 37° C. T-47D and ZR-75-1 cells were maintained at a cell density between 30 and 80% confluency at a cell density of 0.1 to 0.6×10^6 cells/mL. Cells were harvested at 600×g and resuspended at 0.65×10^6 cells/mL into appropriate media+10% FCS. An aliquot of […] of cells was added to a well of a 96-well microtiter plate containing 5 μl of a 10% DMSO in RPMI-1640 media solution containing about 0.16 to 10 μM of 2,7,8-triamino-4-(3-bromo-4,5-dimethoxy-phenyl)-3-cyano-4H-chromene (1) or other test compounds (0.016 to 1 μM final). An aliquot of 45 μl of cells was added to a well of a 96-well microtiter plate containing 5 μl of a 10% DMSO in RPMI-1640 media solution without test compound as the control sample. The samples were mixed by agitation and then incubated at 37° C. for 24 h in a 5% CO2−95% humidity incubator. […] Using a fluorescent plate reader (Model 1420 Wallac Instruments), an initial reading (T=0) was made about 1-2 min after addition of the substrate solution, employing excitation at 485 nm and emission at 530 nm, to determine the background fluorescence of the control sample. After the 3 h incubation, the samples were read for fluorescence as above (T=3 h).
(§2) The Relative Fluorescence Unit values (RFU) were used to calculate the sample readings as follows: RFU(T=3h)−Control RFU(T=0)=Net RFU(T=3h)
(§3) The activity of caspase cascade activation was determined by the ratio of the net RFU value for 2,7,8-triamino-4-(3-bromo-4,5-dimethoxy-phenyl)-3-cyano-4H-chromene or other test compound to that of control samples. The EC50 (nM) was determined by a sigmoidal dose-response calculation (Prism 2.0, GraphPad Software Inc.).

Another assay concerns H1299. The assay can be described thus: Caspase activation assay in H1299 cells. To be noted: Homo sapiens, NCI-H1299, 24 h incubation, read-out: Caspase activation potency EC50 H1299. The assay is classed as cell-based. The protocol: Human breast cancer cell lines T-47D and ZR-75-1, human colon cancer cell line DLD-1 and human non-small cell lung cancer cell line H1299 were grown according to media component mixtures designated by American Type Culture Collection+10% FCS (Invitrogen Corporation), in a 5% CO2−95% humidity incubator at 37° C. T-47D and ZR-75-1 cells were maintained at a cell density between 30 and 80% confluency at a cell density of 0.1 to 0.6×10^6 cells/mL. Cells were harvested at 600×g and resuspended at 0.65×10^6 cells/mL into appropriate media+10% FCS. An aliquot of […] of cells was added to a well of a 96-well microtiter plate containing 5 μl of a 10% DMSO in RPMI-1640 media solution containing about 0.16 to 10 μM of 2,7,8-triamino-4-(3-bromo-4,5-dimethoxy-phenyl)-3-cyano-4H-chromene (1) or other test compounds (0.016 to 1 μM final). An aliquot of 45 μl of cells was added to a well of a 96-well microtiter plate containing 5 μl of a 10% DMSO in RPMI-1640 media solution without test compound as the control sample. The samples were mixed by agitation and then incubated at 37° C. for 24 h in a 5% CO2−95% humidity incubator. After incubation, the samples were removed from the incubator and 50 μl of a solution containing 20 μM of N-(Ac-DEVD)-N′-ethoxycarbonyl-R110 (SEQ ID No:1) fluorogenic substrate (Cytovia, Inc.; U.S. Pat. No. 6,335,429), 20% sucrose (Sigma), 20 mM DTT (Sigma), 200 mM NaCl (Sigma), 40 mM Na PIPES buffer pH 7.2 (Sigma), and 500 μg/ml lysolecithin (Calbiochem) was added. The samples were mixed by agitation and incubated at room temperature. Using a fluorescent plate reader (Model 1420 Wallac Instruments), an initial reading (T=0) was made about 1-2 min after addition of the substrate solution, employing excitation at 485 nm and emission at 530 nm, to determine the background fluorescence of the control sample. After the 3 h incubation, the samples were read for fluorescence as above (T=3 h).
as §2, §3

The next assay concerns MX-1. The assay can be described thus: Inhibition of cell proliferation (GI50), MX-1. The assay is classed as cell-based. Conditions: Homo sapiens; MX1 cells, 72 h, CellTiter-Glo. The protocol:
(§4) Human breast cancer cells MX-1 and MDAMB435, hepatocarcinoma cells SNU398, colon cancer cells HCT116 and HeLa cells were grown and harvested as in Example 7. An aliquot of […] of cells (4.4×10^4 cells/mL) was added to a well of a 96-well microtiter plate containing 5 μL of a 10% DMSO in RPMI-1640 media solution containing 10 nM to 100 μM of R(−)-2,7,8-triamino-4-(3-bromo-4,5-dimethoxy-phenyl)-3-cyano-4H-chromene (1 nM to 10 μM final). An aliquot of 45 μL of cells was added to a well of a 96-well microtiter plate containing 5 μL of a 10% DMSO in RPMI-1640 media solution without compound as the control sample for maximal cell proliferation (LMax). The samples were mixed by agitation and then incubated at 37° C. for 72 h in a 5% CO2−95% humidity incubator. After incubation, the samples were removed from the incubator and 25 μL of CellTiter-Glo™ reagent (Promega) was added. The samples were mixed by agitation and incubated at room temperature for 10-15 min. Plates were then read using a luminescent plate reader (Model SPECTRAfluor Plus, Tecan) to give Ltest values.
(§5) Baseline for GI50 (dose for 50% inhibition of cell proliferation) of initial cell numbers was determined by adding an aliquot of 45 μL of cells or 45 μL of media, respectively, to wells of a 96-well microtiter plate containing 5 μL of a 10% DMSO in RPMI-1640 media solution. […]
For orientation: Cellular ATP, detected with luciferase, serves as a proxy for viable cell number.

A further assay concerns HeLa cells. The assay can be described thus: Inhibition of cell proliferation (GI50), HeLa. The assay is classed as cell-based. Conditions: Homo sapiens, 72 h, CellTiter-Glo. The protocol:
as §4, §5

For another assay, the system named is MDAMB435. The assay can be described thus: Inhibition of cell proliferation (GI50), MDAMB435. The assay is classed as cell-based. Conditions: Homo sapiens, MDA-MB-435; MDAMB435 cells, 72 h, CellTiter-Glo. On the procedure: as §4, §5
Another assay concerns SNU398. The assay can be described thus: Inhibition of cell proliferation (GI50), SNU398. The class given is cell-based. Conditions: Homo sapiens, SNU-398; Snu398 cells, 72 h, CellTiter-Glo. The protocol:
as §4, §5

The next assay has as its system HCT116. The assay can be described thus: Inhibition of cell proliferation (GI50), HCT116. The assay is classed as cell-based. Conditions: Homo sapiens, HCT-116; HCT116 cells, 72 h, CellTiter-Glo. The protocol: as §4, §5
The test system of a further assay is solid tumor cells. The assay can be described thus: Caspase cascade activation and induction of apoptosis, overall statement. The assay is classed as cell-based, human. To be noted: summary of Table I. The protocol:
as §1, §3

As usually defined, the EC50 is the midpoint of the concentration-response curve. One may read the GI50 as the concentration that inhibits growth by half. A higher GI50 goes with lower sensitivity of the cells. For `COc1cc([C@H]2C(C#N)=C(N)Oc3c2ccc(N)c3N)cc(Br)c1OC` [Compound 1R, R(−)-2,7,8-triamino-4-(3-bromo-4,5-dimethoxy-phenyl)-3-cyano-4H-chromene], the EC50 in the assay with ZR-75-1 was 19 nM; in the assay with H1299, 62 nM. The GI50 amounted to 17 nM with MX-1; 25 nM with HeLa cells; 9 nM in the assay on MDAMB435; 28 nM with SNU398; 19 nM in the assay with HCT116. The “Caspase cascade activator and inducer of apoptosis (in words)” value with solid tumor cells is “potent caspase cascade activator and inducer of apoptosis”.
